experiment: in vitro; conditions: human, hela cells, % viability

Compound | viability at 28.5 h, 10 µM [%]
Cc1csc(C(Cc2ccsc2)NC(=O)Cc2ccccn2)n1 (stereo not shown) [CBK285097] | 94.9
COCCCN(Cc1ccccn1)Cc1cc(F)ccc1F [CBK282950] | 108
Cc1ccccc1Nc1nc(N)nc(CN2CCOCC2)n1 [CBK305646] | 87.5
OC(COc1ccc(OC(F)(F)F)cc1)CN1CCN(c2nc3ccc(Cl)cc3s2)CC1 (stereo not shown) [CBK074639] | 122
COc1cccc2sc(NC(=O)c3ccc4occc4c3)nc12 [CBK149278] | 96.8
CC(C)n1cc(C(=O)NCc2cccnc2N(C)C2CCCCC2)cn1 [CBK307593] | 105
CSc1nc(=O)c(CCC(=O)O)n[nH]1 [CBK019689] | 110
COc1cccc(OC)c1-c1cn2ccnc2c(N(C)CCN(C)C)n1 [CBK066398] | 97.3
Cc1cccc(C(C)(C)C)c1NC(=O)NCCc1cccs1 [CBK044530] | 98.9
Cn1ccnc1C1(O)CCN(C(=O)c2ccc(F)cc2)CC1 [CBK283541] | 91.5
CCOC(=O)c1c(NC(=O)CSc2nncn2C)sc(C)c1C [CBK267970] | 89.8
Cc1c(NC(=S)NC(=O)Cc2ccccc2)cccc1-c1nc2ncccc2o1 [CBK264345] | 118
COc1ccc(C2N(Cc3ccccc3)CCN2Cc2ccccc2)c(OC)c1OC [CBK265220] | 104
Nc1ncc(-c2ccco2)nc1-c1ccc(C=O)cc1 [CBK064095] | 102
CCc1nc2ccc(C(=O)N3CCNC(=O)C3)cn2c1N(CCC(C)C)CCN(C)C [CBK146255] | 92.4
Cc1ccc(-c2nnc(SCc3cccc4nsnc34)n2C)cc1 [CBK269706] | 92.7
CN(C)c1cccc(NC(=O)Nc2ncc(Br)c3cccnc23)c1 [CBK107633] | 94
COC(=O)c1ccccc1NC(=O)CN(c1cccc(Cl)c1Cl)S(C)(=O)=O [CBK264612] | 115
O=S(=O)(Nc1nnn[nH]1)c1ccc(-c2ccccn2)s1 [CBK062589] | 106
COCC(=O)N1CCc2sccc2C1c1ccc(NCc2ccc(F)cc2F)cc1 (stereo not shown) [CBK286460] | 100
O=C(O)c1ccc(N2C(=O)CC(N3CCN(CCO)CC3)C2=O)cc1 (stereo not shown) [CBK271638] | 88.9
Cc1c(C(C)NCC2CCCC2O)cnn1-c1ccc(C#N)cc1 (stereo not shown) [CBK304019] | 94.5
O=C(O)CC(NC(=O)C(c1ccccc1)c1ccccc1)c1ccco1 (stereo not shown) [CBK268729] | 109

Compound | viability at 28.5 h, 10 µM [%]
C/C(=C(/C(=O)N(N)c1nc2ccccc2s1)C(=O)C(F)(F)F)N1CCC(C(N)=O)CC1 [CBK265758] | 87.7
O=c1[nH]cc(-c2ccccc2)cc1CNc1cccc2ncccc12 [CBK284771] | 77.1
Cc1nn(C)cc1CN(CCCn1ccnc1)Cc1cccc(F)c1 [CBK283098] | 92.3
Cc1nc(C)c(CC(=O)NC(c2ccncc2)c2cccs2)s1 (stereo not shown) [CBK281439] | 96.6
CCOc1ccc(-c2n[nH]c(C)c2-c2ccc(OC)c(OC)c2)c(O)c1 [CBK288106] | 102
S=C(NCCc1c[nH]c2ccccc12)NCc1ccco1 [CBK267157] | 92.7
O=C(O)C1(Cc2cccc(-c3cccs3)c2)CCCNC1 (stereo not shown) [CBK281688] | 90.5
CN(C)CCN(C)C(=O)C1CCN(c2cncc(-c3ccc(O)cc3)n2)CC1 [CBK126928T] | 88
CCOc1cc(CNCc2ccccn2)cc(Cl)c1OCC [CBK268516C] | 106
Cc1cc(CCCC(=O)NCc2ccc(-c3ccc(C(N)=O)c(C)n3)cc2)ccc1F [CBK286016] | 90.3
Clc1cncc(N2CCCC2)n1 [CBK083595] | 118
CCOC(=O)CN1CCN(c2nccnc2Oc2ccc(OC)c(OC)c2)CC1 [CBK083052T] | 103
CN(CC(=O)O/N=C(\N)c1cccnc1)S(=O)(=O)c1ccccc1 [CBK267684] | 94.3
COCCCNC(=S)N/N=C/c1ccco1 [CBK006272] | 104
Nc1nnc(SCC(=O)N2CCN(C(c3ccccc3)c3ccccc3)CC2)n1-c1ccccc1 [CBK266696] | 108
CCc1noc(C)c1C(=O)N1CCN(C(C#N)C2CCCCC2)CC1 (stereo not shown) [CBK304916] | 88.8
COc1cccc(NC(=O)CCN2C(=O)c3ccccc3S2(=O)=O)c1 [CBK266003] | 92.3
O=C(NCc1ccsc1)N1CCCN(Cc2ccc(Cl)cc2)CC1 [CBK305450] | 86.4
O=C(NCC1CCN(c2ccc(F)c(F)c2)C1)c1c[nH]nc1C1CC1 (stereo not shown) [CBK305409] | 91
Cc1cc(OCC(=O)Nc2nn(Cc3ccccc3Cl)cc2Cl)ccc1[N+](=O)[O-] [CBK268113] | 100
Nc1ncncc1-c1ccc(Cl)cc1 [CBK012407] | 90.9
CCN(CC)c1nc2n(c(=O)n1)CCN2CC [CBK027342] | 94.9
C/C(=C/C(=O)NCc1ccc(Cl)cc1)C(=O)O [CBK286954] | 105

Compound | viability at 28.5 h, 10 µM [%]
Clc1ccccc1-c1nccnc1NCc1cccs1 [CBK037362] | 98.6
COc1ccc(/C=C(\C)C(=O)Nc2cc3ccccc3c(N3CCNCC3)n2)cc1OC [CBK038937T] | 82.1
CN(C)c1ccc(Nc2nc(NCCO)c3ccccc3n2)cc1 [CBK268392C] | 87.6
O=C(O)c1cc(NC(=O)c2cccc(N3C(=O)c4ccccc4C3=O)c2)cc(C(=O)O)c1 [CBK263338] | 96.8
COc1ccc(C)cc1S(=O)(=O)N1CCCC(C(=O)NCc2ccccn2)C1 (stereo not shown) [CBK268503] | 102
Cc1cc(C(=O)N2CCC(Oc3nccn(Cc4ccc(S(C)(=O)=O)cc4)c3=O)CC2)ccc1Cl [CBK161883] | 92.6
Cc1ccc(NC(=O)CSc2nnc(C(O)c3ccccc3)n2-c2ccccc2)c(C)c1 (stereo not shown) [CBK266072] | 106
O=C(c1cc(S(=O)(=O)N2CCOCC2)ccc1Cl)N1CCCC(CO)C1 (stereo not shown) [CBK304236] | 104
Cc1ccccc1C(=O)Nc1ccc(F)c(F)c1 [CBK058249] | 96.1
CCOc1ccc(N(Cc2ccc(C(=O)O)cc2)S(C)(=O)=O)cc1 [CBK287231] | 104
Cc1ccc(C2CC(=O)c3cnc(N)nc3C2)cc1 (stereo not shown) [CBK288166] | 92
CN(Cc1cccc(Oc2ccccc2)c1)Cc1cccc2ccccc12 [CBK261857] | 96.9
Cc1cc2c(cc1C)C(O)CC1(CCN(C(=O)c3ccco3)CC1)O2 (stereo not shown) [CBK282839] | 84
Nc1nnc(-c2ccc(Cl)cc2)[nH]1 [CBK025436] | 118
CCc1noc(CN2CCC(c3c[nH]c4ccc(OC)cc34)CC2)n1 [CBK305960] | 84.1
CS(=O)(=O)N(CC(=O)Nc1ccc(S(N)(=O)=O)cc1)Cc1ccc(Cl)cc1 [CBK267512] | 98.8
O=c1cc(CN2CCN(c3ccccc3)CC2)occ1O [CBK288392] | 89
CCNC(=O)Nc1cc2ccccc2c(-c2ccc(F)cc2OC)n1 [CBK085731] | 62.9
O=c1[nH]nc2c(S(=O)(=O)N3CCCCC3)cccn12 [CBK288450] | 74.9
CCCC(=O)N1CCCC1c1cc2n(n1)[C@@H](C(F)(F)F)C[C@@H](C)N2 (stereo partly shown) [CBK283003] | 92.4
O=C1CC(C(=O)N2CCN(C(=O)c3ccco3)CC2)c2ccccc21 (stereo not shown) [CBK144464] | 105
CCNc1ncc(C(=O)N2CCOC(c3ccc(F)c(C)c3)C2)s1 (stereo not shown) [CBK306375] | 95.4
CN(Cc1ccc(F)cc1F)C(=O)Cn1nc2n(c1=O)CCCCC2 [CBK304598] | 86.3

Compound | viability at 28.5 h, 10 µM [%]
O=C(O)C1CCN(C2CC(=O)N(Cc3ccccc3)C2=O)CC1 (stereo not shown) [CBK287206] | 84.8
CC(=O)c1ccccc1NC(=O)CSCC(=O)O [CBK057752] | 92.2
CCn1c(C)cc(C(=O)CSc2nnc(N3CCCC3)n2C2CC2)c1C [CBK306035] | 85.5
COc1ccccc1/C=C1/S/C(=N/Cc2ccccc2)N(Cc2ccccc2)C1=O [CBK262234] | 99.3
O=C(NC(/C=C/c1ccccc1)c1cc([N+](=O)[O-])c2cccnc2c1O)C1CCCCC1 (stereo not shown) [CBK265333] | 93
c1ccc(CC2CCN(CCc3c[nH]c4ccccc34)CC2)cc1 [CBK126385] | 94.9
COC(=O)c1ccc(NS(=O)(=O)c2cccc3cccnc23)cc1 [CBK028694] | 104
COCCC(=O)Nc1ccc(N2CCNCC2)nc1 [CBK004749T] | 92.2
Nc1ncnc(Nc2cccc(F)c2)n1 [CBK017447] | 91.7
CCc1ccc(OCCNc2cc(N3CCN(CCO)CC3)ccc2[N+](=O)[O-])cc1 [CBK046496] | 91.7
COc1ccc(C(=O)N2CCN(Cc3cccnc3)CC2)cc1OC [CBK263321] | 99.3
Cc1ccn2cc(CNC(=O)CCC(C)N3CCN(C)CC3)nc2c1 (stereo not shown) [CBK306628] | 97.2
CC1CCN(S(=O)(=O)c2cc(C(=O)OCC(=O)c3ccccc3)c(Cl)cc2Cl)CC1 [CBK264470] | 95.6
O=S(=O)(Cc1ccccc1Cl)NCCN1CCOCC1 [CBK269171] | 102
COc1ncc(-c2cncc(N3CCN(c4ccccc4C#N)CC3)n2)c(OC)n1 [CBK037872] | 105
CN(C)c1ccc(-c2nc(N(C)C)n(C)n2)cn1 [CBK306858] | 90.1
Cc1onc(-c2ccccc2)c1CNC(=O)c1ccco1 [CBK144074] | 90.5
CC(C)CNC(=O)N(CCc1ccccc1)Cc1ccccc1 [CBK155339] | 93.8
COc1ncccc1C(=O)N1Cc2ccccc2C1 [CBK200324] | 101
O=C(CCC(=O)c1ccc(F)cc1)Nc1cccnc1 [CBK266901] | 89.4
O=C(Cn1cc(C(=O)NCc2ccc(F)cc2)ccc1=O)NC1(c2ccccc2)CCCC1 [CBK286081] | 96.9
O=[N+]([O-])c1cccnc1Oc1cccc2cccnc12 [CBK002760] | 97.4

— paper PMC12040169 (PLOS Biology, 2025)
